Values after ≈ are worked out from the molar mass of the structure shown.
What was measured:
Staphylococcus aureus [1] = assay: Antibacterial activity against Staphylococcus aureus Smith by micro-broth dilution method; type: functional
Staphylococcus aureus [2] = assay: Antibacterial activity against methicillin resistant Staphylococcus aureus OIT971 by micro-broth dilution method; type: functional
Streptococcus pneumoniae = assay: Antibacterial activity against Streptococcus pneumoniae IID553 by micro-broth dilution method; type: functional
Enterococcus faecium = assay: Antibacterial activity against Enterococcus faecium VanA by micro-broth dilution method; type: functional
Escherichia coli = assay: Antibacterial activity against Escherichia coli ATCC 25922 by micro-broth dilution method; type: functional
Acinetobacter baumannii = assay: Antibacterial activity against Acinetobacter baumannii IID876 by micro-broth dilution method; type: functional
Pseudomonas aeruginosa = assay: Antibacterial activity against Pseudomonas aeruginosa PAO1 by micro-broth dilution method; type: functional
[3] = molecular target: Voltage-gated inwardly rectifying potassium channel KCNH2 (Homo sapiens, UniProt Q12809); assay: Displacement of MK499 from human ERG
Chain of Voltage-gated inwardly rectifying potassium channel KCNH2 (Q12809 whole entry): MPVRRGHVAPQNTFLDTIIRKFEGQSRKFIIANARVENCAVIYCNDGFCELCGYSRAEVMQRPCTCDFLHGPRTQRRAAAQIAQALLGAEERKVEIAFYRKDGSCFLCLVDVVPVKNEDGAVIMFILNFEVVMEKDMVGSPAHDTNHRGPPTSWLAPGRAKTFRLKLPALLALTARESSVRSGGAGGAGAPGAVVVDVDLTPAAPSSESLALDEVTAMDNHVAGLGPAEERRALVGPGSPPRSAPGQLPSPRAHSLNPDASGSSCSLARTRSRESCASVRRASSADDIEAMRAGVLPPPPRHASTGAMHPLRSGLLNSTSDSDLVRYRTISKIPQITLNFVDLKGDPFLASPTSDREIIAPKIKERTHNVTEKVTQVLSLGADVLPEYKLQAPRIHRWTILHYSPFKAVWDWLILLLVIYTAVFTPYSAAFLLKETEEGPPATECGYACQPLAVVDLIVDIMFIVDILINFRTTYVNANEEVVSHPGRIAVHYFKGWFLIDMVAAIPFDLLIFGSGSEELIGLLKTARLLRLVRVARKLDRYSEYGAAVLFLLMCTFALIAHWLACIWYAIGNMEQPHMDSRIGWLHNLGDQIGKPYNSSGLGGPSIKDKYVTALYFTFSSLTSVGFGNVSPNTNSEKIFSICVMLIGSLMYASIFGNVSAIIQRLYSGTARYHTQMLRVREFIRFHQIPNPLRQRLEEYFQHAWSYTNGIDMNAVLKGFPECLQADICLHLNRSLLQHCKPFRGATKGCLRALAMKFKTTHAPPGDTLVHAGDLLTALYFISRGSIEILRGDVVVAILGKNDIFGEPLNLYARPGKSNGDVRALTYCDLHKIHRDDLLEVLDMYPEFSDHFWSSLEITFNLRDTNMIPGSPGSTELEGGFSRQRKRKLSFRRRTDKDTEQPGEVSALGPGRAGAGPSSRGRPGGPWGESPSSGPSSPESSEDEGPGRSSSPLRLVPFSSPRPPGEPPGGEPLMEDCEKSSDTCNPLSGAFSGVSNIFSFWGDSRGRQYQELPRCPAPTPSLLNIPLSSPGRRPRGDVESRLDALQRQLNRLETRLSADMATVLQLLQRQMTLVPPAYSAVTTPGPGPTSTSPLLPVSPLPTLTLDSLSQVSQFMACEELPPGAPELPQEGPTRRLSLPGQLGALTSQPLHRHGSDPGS

Staphylococcus aureus [4] = assay: Ratio of MIC for quinolone-resistant Staphylococcus aureus MS5935 to MIC for quinolone-sensitive Staphylococcus aureus MS5935; type: functional
Staphylococcus aureus [5] = assay: Antibacterial activity against Staphylococcus aureus infected in iv dosed mouse; type: functional
Staphylococcus aureus [6] = assay: Antibacterial activity against Staphylococcus aureus infected in po dosed mouse; type: functional
[7] = Staphylococcus aureus, Smith, read-out: MIC
[8] = Staphylococcus aureus, OIT971, read-out: MIC
[9] = Streptococcus pneumoniae, IID553, read-out: MIC
[10] = Enterococcus faecium, VanA, read-out: MIC
[11] = Escherichia coli, ATCC 25922, read-out: MIC
[12] = Acinetobacter baumannii, IID876, read-out: MIC
[13] = Pseudomonas aeruginosa, PAO1, read-out: MIC
[14] = Staphylococcus aureus, iv, read-out: ED50
[15] = Staphylococcus aureus, po, read-out: ED50

COc1ccc2ncc(F)c([C@H](O)[C@@H](O)C34CCC(NCc5ccc6c(n5)NC(=O)CO6)(CC3)CO4)c2n1 (single isomer, unassigned; (-))
MIC (Staphylococcus aureus [1]; [7]): 1 µg/mL (≈ 1.9 µM) | MIC (Staphylococcus aureus [2]; [8]): 1 µg/mL (≈ 1.9 µM) | MIC (Streptococcus pneumoniae; [9]): 8 µg/mL (≈ 15.2 µM) | MIC (Enterococcus faecium; [10]): 16 µg/mL (≈ 30.4 µM) | MIC (Escherichia coli; [11]): 16 µg/mL (≈ 30.4 µM) | MIC (Acinetobacter baumannii; [12]): 2 µg/mL (≈ 3.81 µM) | MIC (Pseudomonas aeruginosa; [13]): 64 µg/mL (≈ 122 µM) | IC50 [3]: 36.1 µM | Ratio (Staphylococcus aureus [4]): <4

COc1ccc2ncc(F)c(CC(N)C34CCC(NCc5ccc6c(n5)NC(=O)CO6)(CC3)CO4)c2n1.Cl (single isomer, unassigned; (+))
ED50 (Staphylococcus aureus [5]): 25 mg/kg | ED50 (Staphylococcus aureus [6]): 50 mg/kg

COc1ccc2ncc(F)c(CC(OCCO)C34CCC(NCc5ccc6c(n5)NC(=O)CO6)(CC3)CO4)c2n1 (racemic)
MIC (Staphylococcus aureus [1]; [7]): 2 µg/mL (≈ 3.61 µM) | MIC (Staphylococcus aureus [2]; [8]): 2 µg/mL (≈ 3.61 µM) | MIC (Streptococcus pneumoniae; [9]): 8 µg/mL (≈ 14.5 µM) | MIC (Enterococcus faecium; [10]): 32 µg/mL (≈ 57.8 µM) | MIC (Escherichia coli; [11]): 32 µg/mL (≈ 57.8 µM) | MIC (Acinetobacter baumannii; [12]): 32 µg/mL (≈ 57.8 µM) | MIC (Pseudomonas aeruginosa; [13]): 32 µg/mL (≈ 57.8 µM)

COc1ccc2ncc(F)c(CC(F)C34CCC(NCc5ccc6c(n5)NC(=O)CO6)(CC3)CO4)c2n1 (racemic)
MIC (Staphylococcus aureus [1]; [7]): 0.25 µg/mL (≈ 0.489 µM) | MIC (Staphylococcus aureus [2]; [8]): 0.25 µg/mL (≈ 0.489 µM) | MIC (Streptococcus pneumoniae; [9]): 1 µg/mL (≈ 1.95 µM) | MIC (Enterococcus faecium; [10]): 8 µg/mL (≈ 15.6 µM) | MIC (Escherichia coli; [11]): 8 µg/mL (≈ 15.6 µM) | MIC (Acinetobacter baumannii; [12]): 8 µg/mL (≈ 15.6 µM) | MIC (Pseudomonas aeruginosa; [13]): 8 µg/mL (≈ 15.6 µM)

COc1ccc2ncc(F)c(CC(N)C34CCC(NCc5ccc6c(n5)NC(=O)CO6)(CC3)CO4)c2n1 (single isomer, unassigned; (-))
MIC (Staphylococcus aureus [1]): 0.13 µg/mL (≈ 0.256 µM) | MIC (Staphylococcus aureus [2]): 0.13 µg/mL (≈ 0.256 µM) | MIC (Streptococcus pneumoniae): 2 µg/mL (≈ 3.93 µM) | MIC (Enterococcus faecium): 4 µg/mL (≈ 7.87 µM) | MIC (Escherichia coli): 1 µg/mL (≈ 1.97 µM) | MIC (Acinetobacter baumannii): 0.25 µg/mL (≈ 0.492 µM) | MIC (Pseudomonas aeruginosa): 8 µg/mL (≈ 15.7 µM)

COc1ccc2ncc(F)c(C(O)CC34CCC(NCc5ccc6c(n5)NC(=O)CO6)(CC3)CO4)c2n1.Cl (single isomer, unassigned; (+))
ED50 (Staphylococcus aureus [5]; [14]): 5.9 mg/kg | ED50 (Staphylococcus aureus [6]; [15]): 6.4 mg/kg

COc1ccc2ncc(F)c(C(O)CC34CCC(NCc5ccc6c(n5)NC(=O)CO6)(CC3)CO4)c2n1.Cl (single isomer, unassigned; (-))
ED50 (Staphylococcus aureus [5]): 3.7 mg/kg | ED50 (Staphylococcus aureus [6]): 4.8 mg/kg

COc1ccc2ncc(F)c(CCC34CCC(NCc5ccc6c(n5)NC(=O)CO6)(CC3)CO4)c2n1
Ratio (Staphylococcus aureus [4]): 2

COc1ccc2ncc(F)c([C@@H]3OC(=O)O[C@H]3C34CCC(NCc5ccc6c(n5)NC(=O)CO6)(CC3)CO4)c2n1 (single isomer, unassigned; (-))
MIC (Staphylococcus aureus [1]; [7]): 0.25 µg/mL (≈ 0.453 µM) | MIC (Staphylococcus aureus [2]; [8]): 0.25 µg/mL (≈ 0.453 µM) | MIC (Streptococcus pneumoniae; [9]): 2 µg/mL (≈ 3.63 µM) | MIC (Enterococcus faecium; [10]): 8 µg/mL (≈ 14.5 µM) | MIC (Escherichia coli; [11]): 16 µg/mL (≈ 29 µM) | MIC (Acinetobacter baumannii; [12]): 16 µg/mL (≈ 29 µM) | MIC (Pseudomonas aeruginosa; [13]): 16 µg/mL (≈ 29 µM) | IC50 [3]: 4.9 µM | Ratio (Staphylococcus aureus [4]): <4

CO/N=C(/Cc1c(F)cnc2ccc(OC)nc12)C12CCC(NCc3ccc4c(n3)NC(=O)CO4)(CC1)CO2
MIC (Staphylococcus aureus [1]; [7]): 16 µg/mL (≈ 29.8 µM) | MIC (Staphylococcus aureus [2]; [8]): 16 µg/mL (≈ 29.8 µM) | MIC (Streptococcus pneumoniae; [9]): 16 µg/mL (≈ 29.8 µM) | MIC (Enterococcus faecium; [10]): 16 µg/mL (≈ 29.8 µM) | MIC (Escherichia coli; [11]): 16 µg/mL (≈ 29.8 µM) | MIC (Acinetobacter baumannii; [12]): 16 µg/mL (≈ 29.8 µM) | MIC (Pseudomonas aeruginosa; [13]): 16 µg/mL (≈ 29.8 µM) | IC50 [3]: 2.5 µM | Ratio (Staphylococcus aureus [4]): <4

COc1ccc2ncc(F)c(C(CO)CC34CCC(NCc5ccc6c(n5)NC(=O)CO6)(CC3)CO4)c2n1 (racemic)
MIC (Staphylococcus aureus [1]; [7]): 1 µg/mL (≈ 1.91 µM) | MIC (Staphylococcus aureus [2]; [8]): 1 µg/mL (≈ 1.91 µM) | MIC (Streptococcus pneumoniae; [9]): 2 µg/mL (≈ 3.82 µM) | MIC (Enterococcus faecium; [10]): 16 µg/mL (≈ 30.6 µM) | MIC (Escherichia coli; [11]): 32 µg/mL (≈ 61.1 µM) | MIC (Acinetobacter baumannii; [12]): 16 µg/mL (≈ 30.6 µM) | MIC (Pseudomonas aeruginosa; [13]): 32 µg/mL (≈ 61.1 µM)

COc1ccc2ncc(F)c(CC(NS(C)(=O)=O)C34CCC(NCc5ccc6c(n5)NC(=O)CO6)(CC3)CO4)c2n1 (racemic)
MIC (Staphylococcus aureus [1]; [7]): 32 µg/mL (≈ 54.5 µM) | MIC (Staphylococcus aureus [2]; [8]): 32 µg/mL (≈ 54.5 µM) | MIC (Streptococcus pneumoniae; [9]): 32 µg/mL (≈ 54.5 µM) | MIC (Enterococcus faecium; [10]): 32 µg/mL (≈ 54.5 µM) | MIC (Escherichia coli; [11]): 32 µg/mL (≈ 54.5 µM) | MIC (Acinetobacter baumannii; [12]): 32 µg/mL (≈ 54.5 µM) | MIC (Pseudomonas aeruginosa; [13]): 32 µg/mL (≈ 54.5 µM)

COc1ccc2ncc(F)c(C[C@H](O)C34CCC(NCc5ccc6c(n5)NC(=O)CO6)(CC3)CO4)c2n1.Cl
ED50 (Staphylococcus aureus [5]; [14]): 2.5 mg/kg | ED50 (Staphylococcus aureus [6]; [15]): 2.2 mg/kg

COc1ccc2ncc(F)c(C/C(=N/O)C34CCC(NCc5ccc6c(n5)NC(=O)CO6)(CC3)CO4)c2n1
MIC (Staphylococcus aureus [1]; [7]): 16 µg/mL (≈ 30.6 µM) | MIC (Staphylococcus aureus [2]; [8]): 16 µg/mL (≈ 30.6 µM) | MIC (Streptococcus pneumoniae; [9]): 16 µg/mL (≈ 30.6 µM) | MIC (Enterococcus faecium; [10]): 16 µg/mL (≈ 30.6 µM) | MIC (Escherichia coli; [11]): 16 µg/mL (≈ 30.6 µM) | MIC (Acinetobacter baumannii; [12]): 16 µg/mL (≈ 30.6 µM) | MIC (Pseudomonas aeruginosa; [13]): 16 µg/mL (≈ 30.6 µM) | IC50 [3]: 5.4 µM | Ratio (Staphylococcus aureus [4]): <4

COc1ccc2ncc(F)c(C(CC34CCC(NCc5ccc6c(n5)NC(=O)CO6)(CC3)CO4)C(=O)O)c2n1 (racemic)
MIC (Staphylococcus aureus [1]; [7]): 1 µg/mL (≈ 1.86 µM) | MIC (Staphylococcus aureus [2]; [8]): 1 µg/mL (≈ 1.86 µM) | MIC (Streptococcus pneumoniae; [9]): 4 µg/mL (≈ 7.44 µM) | MIC (Enterococcus faecium; [10]): 32 µg/mL (≈ 59.5 µM) | MIC (Escherichia coli; [11]): 32 µg/mL (≈ 59.5 µM) | MIC (Acinetobacter baumannii; [12]): 32 µg/mL (≈ 59.5 µM) | MIC (Pseudomonas aeruginosa; [13]): 32 µg/mL (≈ 59.5 µM) | IC50 [3]: 1 µM | Ratio (Staphylococcus aureus [4]): <4

COc1ccc2ncc(F)c(CC(=O)C34CCC(NCc5ccc6c(n5)NC(=O)CO6)(CC3)CO4)c2n1.Cl
ED50 (Staphylococcus aureus [5]; [14]): 5.1 mg/kg | ED50 (Staphylococcus aureus [6]; [15]): 6.4 mg/kg
